# Source: paper PMC6560211, “ApoAI-derived peptide increases glucose tolerance and prevents formation of atherosclerosis in mice” (Diabetologia, 2019)
# No end group written: not given here.
# Test system: Apoe−/− mice
# Assay: Atherosclerosis model, western diet
# Format: in vivo, mouse
# Conditions: female Apoe−/− mice, i.p. three times a week for 6 weeks, RG54 12 mg/kg, ApoA-I 14 mg/kg, liraglutide 0.3 mg/kg, Oil Red O, n=9, vs NaCl
# Text: Female Apoe^−/− mice (002052, Jackson Laboratory, Bar Harbor, ME, USA) at 12 weeks of age were acclimatised for 1 week, then changed to the RD western diet (D12079B) and injected i.p. three times per week for 6 weeks with treatments as indicated in ESM Fig. 1. At the end of the experimental period, the mice were euthanised and whole aortas were collected, fixed and stained for analysis. See ESM Methods for more details.
# Apoe^−/− mice, which develop aortic atherosclerosis, were used to test if RG54 reduces the formation of atherosclerotic plaques in vivo. Apoe^−/− mice were obtained at 12 weeks of age and acclimatised for 1 week, after which baseline body weights, dual-energy x-ray absorptiometry body scans and serum samples were collected. […] Serum lipid profiles were measured at the start and end of the experimental period (ESM Fig. 5).
# Fig. 2 Effect of ApoA-I or RG54 treatment on early, low-burden atherosclerotic lesion development in Apoe^−/− mice. […] (a) Body weight was measured weekly (n=9). […] (d–f) After euthanasia the aortic arch and abdominal aorta were removed, fixed and prepared en face, then atherosclerotic plaques were stained using Oil Red O. Representative aorta images (d) shown as raw images and images analysed for Oil Red O stained areas. […] Stained areas were then quantified to give the total plaque area (e) and total plaques per aorta (f) (n=9). […]
substance,measurement,value
Ac-AEYHAKATEHLSTLSEKAKPALEDLRQGLLPVLESFKVSFLSALEEYTKKLNTQ [RG54],number of plaques per mouse,significantly reduced
same,total plaque area (percentage of the aortic surface),significantly reduced
